Data as given in publication PMC9207808 (ACS Chemical Biology, 2022).
“Also recorded” adds a separate entry of the source. Residues, ends and D or L forms follow the SMILES beside them.

Tests used:
[1] = system: S. Typhimurium (14028) Δphd-doc::Km strains coexpressing DocSTm; assay: Growth rescue experiment in S. Typhimurium; assay type: cell-based; conditions: coexpression of DocSTm (pBAD33, arabinose) and Phd construct (pCA24N, basal expression); OD600 over time, M9 minimal medium; average of three independent experiments
Method: The cotransformations above were also performed with an empty pBAD33 plasmid, as a control for the absence of DocSTm expression.
For the growth rescue experiment, overnight (1% tryptone, 0.5% yeast extract, 0.5% NaCl, 1% glucose, 100 μg/mL of carbenicillin, and 34 μg/mL of chloramphenicol) cultures of the generated S. Typhimurium strains were diluted to an OD600 of approximately 0.006 into fresh M9 minimal medium supplemented with 0.5% or 1% arabinose, 0.4% glycerol, 0.4% casamino acids, 100 μg/mL of carbenicillin, and 34 μg/mL of chloramphenicol. Cell growth at a given time was monitored at OD600 with a Genesys 140 Visible Spectrophotometer (Thermo Scientific).

[2] = system: DocSTm; assay: Differential scanning fluorimetry (thermal stabilisation of Doc); assay type: binding, S. Typhimurium; conditions: for melting temperature shift ΔTm: DSF, DocSTm 5 μM, analyte 50 μM, Tm with analyte minus Tm of free DocSTm (42.9 ± 0.9 °C), SYPRO Orange, 20 mM K2HPO4, 50 mM (NH4)2SO4, pH 8.0, triplicate; for Average Tm: average of 3 replicates
Outline: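 Thermal shift of 5 μM Doc in 20 mM K2HPO4, 50 mM (NH4)2SO4, pH 8.0 with 3× SYPRO Orange, heated from 25 to 95 °C in a qPCR instrument, in triplicate. Melting temperatures from Boltzmann sigmoid fits of the transition region.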

[3] = system: DocSTm; assay: Surface plasmon resonance binding to immobilised Doc; parameters: species or system S. Typhimurium; conditions: for fold decrease in affinity (given as decrease/loss in Kd) compared with peptide 1: SPR Kd relative to wild-type peptide 1; for Half-life of the complex: t1/2 = ln2 / koff
Outline: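 Doc captured on an NTA chip at 22 °C in 10 mM HEPES, 500 mM NaCl, 50 μM EDTA, 0.005% TWEEN 20, pH 8.0. Analytes injected as 80 s pulses at 30 μL/min in multicycle or single-cycle kinetics.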

[4] = system: DocSTm; assay: Dot blot phosphorylation assay (EF-Tu phosphorylation by Doc); assay type: biochemical, S. Typhimurium; conditions: α-pThr, DocSTm 1 μM, EF-TuSTm 3 μM, ATP 1 mM, inhibitor 10 μM to 5 nM (3-fold dilutions), 16 h at RT
Method: Samples were prepared to a final volume of 10 μL. […] Samples were incubated for 16 h at RT and subsequently spotted on a nitrocellulose membrane. Phosphorylated EF-Tu was detected by immunodecoration using a rabbit monoclonal antiphosphothreonine antibody (Abcam, ab218195) at 1:2000 dilution (1 h at 4 °C), followed by incubation with a goat antirabbit IgG (H+L) HRP conjugate antibody (Advansta) at 1:10 000 dilution (1 h at RT). Chemiluminescence was developed using the HRP Luminata kit (Merck, WBLUR0100) and captured by an ImageQuant LAS4000 Western blot imaging system (Cytiva).

[5] = DocSTm 5 µM + 50 µM binder, replicate 1
[6] = DocSTm 5 µM + 50 µM binder, replicate 2
[7] = DocSTm 5 µM + 50 µM binder, replicate 3

Compound | rescue of Salmonella growth from DocSTm-induced growth inhibition (in words) [1] | melting temperature shift ΔTm [2] [°C] | Average Tm ([2]; DocSTm 5 µM + 50 µM binder) [°C] | Tm [2, 5] [°C] | Tm [2, 6] [°C] | Tm [2, 7] [°C] | fold decrease in affinity (given as decrease/loss in Kd) compared with peptide 1 [3] [fold] | inhibition of EF-TuSTm phosphorylation by DocSTm (in words) [4] | further results
CC[C@H](C)[C@H](NC(=O)[C@H](C)NC(=O)[C@H](C)NC(=O)[C@H](Cc1ccccc1)NC(=O)[C@H](CCC(=O)O)NC(=O)[C@H](CC(=O)O)NC(=O)[C@H](CC(=O)O)NC(=O)[C@H](CCSC)NC(=O)[C@H](Cc1c[nH]c2ccccc12)NC(C)=O)C(=O)N[C@@H](CCSC)C(=O)N[C@@H](C)C(=O)N[C@H](C(=O)N[C@@H](Cc1c[nH]cn1)C(=O)NCC(=O)N[C@@H](CC(N)=O)C(=O)N[C@@H](CCC(=O)O)C(=O)N[C@@H](C)C(=O)N[C@@H](CCCNC(=N)N)C(=O)N[C@@H](CCC(=O)O)C(=O)N[C@@H](CC(C)C)C(=O)N[C@@H](C)C(=O)N[C@@H](CC(=O)O)C(=O)N[C@@H](CCCCN)C(=O)O)C(C)C [peptide 14] (Ac-WMDDEFAAIMAVHGNEARELADK-OH; C-terminus assumed) | unable to rescue growth | 14.3 ± 0.9 | 57.2 ± 0.2 | 57.4 | 57.2 | 57.0 | ~300 |  | Kd ([3]; SPR multicycle, steady-state fit, replicate 1): 25 ± 0.5 nM; Kd ([3]; SPR multicycle, steady-state fit, replicate 2): 23.9 ± 0.94 nM; Kd ([3]; SPR multicycle, steady-state fit, replicate 3): 15.4 ± 2.13 nM; Kd ([3]; SPR, multicycle kinetics, steady-state 1:1 fit, mean ± SD of 3 replicates): 21.4 ± 5.25 nM
CC[C@H](C)[C@H](NC(=O)[C@H](C)NC(=O)[C@H](C)NC(=O)[C@H](Cc1ccccc1)NC(=O)[C@H](Cc1c[nH]c2ccccc12)NC(C)=O)C(=O)N[C@@H](CCSC)C(=O)N[C@@H](C)C(=O)N[C@H](C(=O)N[C@@H](Cc1c[nH]cn1)C(=O)NCC(=O)N[C@@H](CC(N)=O)C(=O)N[C@@H](CCC(=O)O)C(=O)N[C@@H](CC(C)C)C(=O)N[C@@H](CCCNC(=N)N)C(=O)N[C@@H](CCC(=O)O)C(=O)N[C@@H](CC(C)C)C(=O)O)C(C)C [peptide 23] (Ac-WFAAIMAVHGNELREL-OH; N-terminus and C-terminus assumed) |  | 7.9 ± 1.0 | 50.7 ± 0.3 | 50.54 | 50.60 | 51.08 | 30 | inactive in all concentrations tested; also recorded: poor DocSTm inhibitors | Kd ([3]; SPR kinetic fit, replicate 1): 1.85 nM; Kd ([3]; SPR kinetic fit, replicate 2): 1.94 nM; Kd ([3]; SPR kinetic fit, replicate 3): 2.18 nM; koff × 10^-6 ([3]; SPR, 1:1 kinetic fit, 22 °C, pH 8.0, mean ± SD of at least 3 replicates): 2794 ± 42 ×10^-6 s-1; kon × 10^6 ([3]; SPR, 1:1 kinetic fit, single-cycle kinetics (multicycle for PhdSTm1-73), 22 °C, pH 8.0, mean ± SD of at least 3 replicates): 1.413 ± 0.136 ×10^6 M-1 s-1; Kd ([3]; SPR, kinetic fit, KD calculated from mean koff and kon, SD propagated, 22 °C, pH 8.0): 1.98 ± 0.193 nM; Half-life of the complex [3]: 0.069 ± 0.001 h
Ac-WNELRELADK-OH [compound 25] |  | 1.3 ± 0.9 | 44.2 ± 0.1 | 44.1 | 44.2 | 44.4 |  | inactive | Average Tm ([2]; DocSTm 5 µM + 100 µM peptide): 43.3 ± 0.1 °C; Tm ([2]; DocSTm 5 µM + 100 µM peptide, replicate 1): 43.2 °C; Tm ([2]; DocSTm 5 µM + 100 µM peptide, replicate 2): 43.2 °C; Tm ([2]; DocSTm 5 µM + 100 µM peptide, replicate 3): 43.4 °C; binding to DocSTm by SPR (in words) ([3]; SPR): Affinity was too weak to be determined by SPR; also recorded: no measurable affinities could be obtained by SPR
PhdSTm: full-length wild-type Phd antitoxin protein of S. Typhimurium | prevented Doc-induced growth inhibition |  |  |  |  |  |  | no phosphorylation was detected | Half-life of the complex ([3]; listed as PhdSTm1-73): 6.7 ± 1.4 h
